Experimental data as given in patent US10781224B2, “Bis(oxymethyl)phosphinic acid and biogenic metal salts thereof as regulators of plant growth and development” (priority 2016, dated 2020).

Test system: corn (Krasnodar 385 MV variety)
Assay: Corn seed treatment with BHMPA salts: germinating power
Assay type: in vivo
Method: Experimental versions—soaking seeds in BHMPA solutions and solutions of BHMPA Ca, Mg, Na, Co, Mn, Cu, and Zn salts at 1·10^−6-1·10^−12% concentrations (doses). The studies were conducted in laboratory in Petri dishes; seed bed—two layers of filter paper. 50 seeds soaked in water (control) and in the solutions of the tested compounds (experimental) were placed into each dish. Wheat, corn, and rice seeds were exposed for one hour.
Seed germination energy and rate were calculated in percent as an arithmetic mean of the four experimental results (germination energy on the 4th day, wheat germination on the 8th day, rice and corn germination—on the 7th day). Germination was determined based on the germinating power indicators (length of the roots and sprouts and their wet and dry mass per 100 shoots).
The effect of pre-sowing seed treatment with the claimed BHMPA salts of biogenic metals was studied on winter wheat (Vershin variety), corn (Krasnodar 385 MV variety), and rice (Diamant variety).
The above data describe the seed viability only at the initial stage of germination, while the germination ability at the later stage of germination is defined by the initial germinating power. The method for the determination of the germinating power comprises measuring the height of the sprouts and primary roots, as well as the biomass and the dry mass thereof per 100 seedlings. [M. A. Kartuzova. Initial Germinating Power as Method of Biological Assessment of Seed Quality. Selection and Seed Farming, #2, 1953].

[1] = corn seeds, solution concentration 1 · 10^−10%

## O=P([O-])(CO)CO.O=P([O-])(CO)CO.[Ca+2] [Ca-salt, Calcium BHMPA Salt]
corn
  optimum concentration for treating corn seeds before sowing: 1·10^−10%
[1]
  Length, root: 6.6 cm
  Length, root, + % to control: 12%
  Length, sprout: 3.2 cm
  Length, sprout, + % to control: 18.5%
  Mass, dry, root: 2.03 g/100 plantlings
  Mass, dry, root, + % to control: 15%
  Mass, dry, sprout: 1.47 g/100 plantlings
  Mass, dry, sprout, + % to control: 8%
  Mass, wet, root: 9.63 g/100 plantlings
  Mass, wet, root, + % to control: 10%
  Mass, wet, sprout: 8.59 g/100 plantlings
  Mass, wet, sprout, + % to control: 21%
corn, 1·10^−6% solution
  Length, root: 4.2 cm
  Length, root, + % to control: −7%
  Length, sprout: 2.5 cm
  Length, sprout, + % to control: −4%
  Mass, dry, root: 1.09 g/100 plantlings
  Mass, dry, root, + % to control: −2%
  Mass, dry, sprout: 0.63 g/100 plantlings
  Mass, dry, sprout, + % to control: −9%
  Mass, wet, root: 7.30 g/100 plantlings
  Mass, wet, root, + % to control: −2.5%
  Mass, wet, sprout: 4.21 g/100 plantlings
  Mass, wet, sprout, + % to control: −6%
corn, 1·10^−6%, 1·10^−7% and 1·10^−12% solutions
  difference from the control in germinating power: rather insignificant
corn, 1·10^−7% solution
  Length, root: 4.6 cm
  Length, root, + % to control: 2%
  Length, sprout: 2.7 cm
  Length, sprout, + % to control: 4%
  Mass, dry, root: 1.20 g/100 plantlings
  Mass, dry, root, + % to control: 8%
  Mass, dry, sprout: 0.72 g/100 plantlings
  Mass, dry, sprout, + % to control: 4%
  Mass, wet, root: 7.75 g/100 plantlings
  Mass, wet, root, + % to control: 3%
  Mass, wet, sprout: 4.67 g/100 plantlings
  Mass, wet, sprout, + % to control: 5%
corn, 1·10^−8% solution
  Length, root: 4.8 cm
  Length, root, + % to control: 7%
  Length, sprout: 2.8 cm
  Length, sprout, + % to control: 8%
  Mass, dry, root: 1.24 g/100 plantlings
  Mass, dry, root, + % to control: 12%
  Mass, dry, sprout: 0.85 g/100 plantlings
  Mass, dry, sprout, + % to control: 23%
  Mass, wet, root: 8.13 g/100 plantlings
  Mass, wet, root, + % to control: 8.5%
  Mass, wet, sprout: 4.84 g/100 plantlings
  Mass, wet, sprout, + % to control: 8.5%
corn, 1·10^−9% solution
  Length, root: 5.2 cm
  Length, root, + % to control: 15.5%
  Length, sprout: 3.0 cm
  Length, sprout, + % to control: 15%
  Mass, dry, root: 1.26 g/100 plantlings
  Mass, dry, root, + % to control: 13.5%
  Mass, dry, sprout: 0.96 g/100 plantlings
  Mass, dry, sprout, + % to control: 39%
  Mass, wet, root: 9.18 g/100 plantlings
  Mass, wet, root, + % to control: 22.5%
  Mass, wet, sprout: 4.99 g/100 plantlings
  Mass, wet, sprout, + % to control: 12%
corn, 1·10^−10% solution
  Length, root: 5.4 cm
  Length, root, + % to control: 20%
  Length, sprout: 3.2 cm
  Length, sprout, + % to control: 23%
  Mass, dry, root: 1.34 g/100 plantlings
  Mass, dry, root, + % to control: 21%
  Mass, dry, sprout: 1.23 g/100 plantlings
  Mass, dry, sprout, + % to control: 78%
  Mass, wet, root: 9.82 g/100 plantlings
  Mass, wet, root, + % to control: 31%
  Mass, wet, sprout: 5.61 g/100 plantlings
  Mass, wet, sprout, + % to control: 26%
corn, 1·10^−11% solution
  Length, root: 5.2 cm
  Length, root, + % to control: 15.5%
  Length, sprout: 2.9 cm
  Length, sprout, + % to control: 11.5%
  Mass, dry, root: 1.30 g/100 plantlings
  Mass, dry, root, + % to control: 17%
  Mass, dry, sprout: 1.09 g/100 plantlings
  Mass, dry, sprout, + % to control: 58%
  Mass, wet, root: 9.44 g/100 plantlings
  Mass, wet, root, + % to control: 26%
  Mass, wet, sprout: 5.15 g/100 plantlings
  Mass, wet, sprout, + % to control: 15%
corn, 1·10^−12% solution
  Length, root: 4.6 cm
  Length, root, + % to control: 2%
  Length, sprout: 2.7 cm
  Length, sprout, + % to control: 4%
  Mass, dry, root: 1.23 g/100 plantlings
  Mass, dry, root, + % to control: 11%
  Mass, dry, sprout: 0.81 g/100 plantlings
  Mass, dry, sprout, + % to control: 17%
  Mass, wet, root: 8.65 g/100 plantlings
  Mass, wet, root, + % to control: 15%
  Mass, wet, sprout: 4.73 g/100 plantlings
  Mass, wet, sprout, + % to control: 6%
